Entries after “also recorded” stand apart in the source; their conditions may differ. Read-outs that look alike come from different tables or passages of the source.
How the values were obtained:
HCV = settings: cited from earlier work
NS5B = settings: cited from earlier work
[1] = test system: HCV 1b replicon cells (Huh-7.5.1); assay: Anti-HCV assay, HCV 1b replicon cells with luciferase reporter; format: cell-based, hepatitis C virus (HCV) subtype 1b; settings: HCV 1b replicon cells; for EC50: mean ± SD; for inhibition at 10 µM / inhibition at 25 µM: Huh-7.5.1, 72 h, 72 h; for inhibition at 10 µM: inhibitory rate at 10 μM, read-out: HCV Inhibition 10 μM; for inhibition at 25 µM: inhibitory rate at 25 μM, read-out: HCV Inhibition 25 μM
Experimental: (§1) The HCV replicons were validated as convenient and effective models for testing the anti-HCV activity. Since HCV subtype 1b is one of the major subtypes worldwide, especially in China, the replicon model from the Huh-7.5.1 cell line integrating HCV 1b genome encoding the nonstructural proteins was chosen to evaluate the anti-HCV activities of 3-hydroxyquinazoline-2,4(1H,3H)-diones. The inhibitory rates of the compounds on HCV replicon cells were determined at concentrations of 25 μM and 10 μM, respectively. The broad-spectrum antiviral drug ribavirin (RBV) and the NS5B nucleoside inhibitor 2′-C-methyladenosine (2CMA) were selected as positive controls. The cytotoxicity of these compounds on replicon cells was determined using the cell counting kit-8 (CCK-8) assay.
HCV 1b replicon cells (Huh-7.5.1) containing luciferase reporter gene were kindly provided by Prof. Zhenghong Yuan (Key Laboratory of Medical Molecular Virology, Fudan University, Shanghai, China). The replicon cells were plated at 1.5 × 10^4 cells per well in a 48-well plate (Corning Inc., New York, NY, USA) at 5% CO2/37 °C. The culture medium was Dulbecco’s Modified Eagle Medium (DMEM, pH 7.3, Shanghai XP Biomed Ltd., Shanghai, China) containing 10% fetal bovine serum (Shanghai XP Biomed Ltd., Shanghai, China), 10^5 U/L penicillin, 0.1 g/L streptomycin, and 0.5 μg/mL blasticidin. After 12 h, the culture medium in each well was replaced with 300 μL of pre-prepared fresh culture medium containing test compound (dissolved in DMSO with specific concentration) or blank DMSO. The final concentration of DMSO in the culture medium in the plate was 0.1%. Each group was tested at least twice in parallel. Ribavirin and 2CMA were used as the positive controls. After incubating the drug-added plate at 5% CO2/37 °C for 72 h, the medium was removed, and each well was washed with 300 μL of phosphate buffer solution (PBS, Shanghai XP Biomed Ltd., Shanghai, China). The cells in each well were then lysed with 50 μL of 1× lysis buffer (E2820, Promega, Madison, WI, USA). Subsequently, 50 μL of 1× luciferase assay substrate (E2820, Promega, Madison, WI, USA) was mixed with 20 μL of the harvested cell lysates.
The inhibitory rates under at least six different concentration gradients were imported into GraphPad Prism 7.0 software to calculate the anti-HCV EC50 values of the compounds using the nonlinear fitting method.

[2] = test system: HCV 1b replicon cells (Huh-7.5.1); assay: Cytotoxicity assay (CCK-8) on replicon cells; format: cell-based; settings: replicon cells, tested concentrations
Experimental: as §1
(§2) The HCV 1b replicon cells were incubated and treated with test compounds or blank DMSO in a 48-well plate using the same materials and methods as described in the experimental procedure of anti-HCV assay. The final concentration of DMSO in each well was 0.1%. After 72 h of drug treatment, the culture medium in the well plate was removed, and cells in each well were washed with 300 μL of PBS. A total of 300 μL of pre-prepared fresh culture medium containing 30 μL CCK-8 reagent (Donjindo, Kumamoto, Japan) was added to each well, and the plate was incubated at 5% CO2/37 °C for 2 h. The OD (optical density) value of each well at 450 nm was measured using a multi-function microplate reader (SpectraMax M5, Molecular Devices, San Jose, CA, USA). The death ratio of each well was calculated using the following equation, in which ODcompound or ODblank represents the measured OD value of the compound group or the blank control (DMSO), respectively:death ratio = (1−ODcompound/ODblank) × 100%(2)
(§3) The cell death data under at least six different concentration gradients were imported into GraphPad Prism 7.0.0 software (GraphPad Software Inc., San Diego, CA, USA), and the CC50 (50% cytotoxic concentration) values were calculated using the nonlinear fitting method.

[3] = Cytotoxicity assay (CCK-8) on replicon cells; format: cell-based; settings: human, HCV 1b replicon cells (Huh-7.5.1); 50% cytotoxic concentration; CCK-8, HCV 1b replicon cells, 72 h
Experimental: as §1, §2, §3

[4] = test system: HCV 1b replicon cells (Huh-7.5.1); assay: Anti-HCV assay, HCV 1b replicon cells with luciferase reporter; format: cell-based, hepatitis C virus (HCV) subtype 1b; settings: Hepatitis C virus, Huh-7.5.1, 72 h, inhibitory rate at 5 μM
[5] = biological target: T1, C-terminal His-tagged NS5BΔ21 from HCV 1b subtype (Hepatitis C virus genotype 1b, UniProt Q913V3); assay: Thermal shift assay with NS5B protein; format: binding; settings: for ΔTm at 50 µM: compound 50 μM; for ΔTm at 100 µM: compound 100 μM
T1 construct: C-terminal His-tagged NS5BΔ21 from HCV 1b subtype; His tag (C); made in house
T1 sequence (Q913V3 2420-2989, stated change not applied): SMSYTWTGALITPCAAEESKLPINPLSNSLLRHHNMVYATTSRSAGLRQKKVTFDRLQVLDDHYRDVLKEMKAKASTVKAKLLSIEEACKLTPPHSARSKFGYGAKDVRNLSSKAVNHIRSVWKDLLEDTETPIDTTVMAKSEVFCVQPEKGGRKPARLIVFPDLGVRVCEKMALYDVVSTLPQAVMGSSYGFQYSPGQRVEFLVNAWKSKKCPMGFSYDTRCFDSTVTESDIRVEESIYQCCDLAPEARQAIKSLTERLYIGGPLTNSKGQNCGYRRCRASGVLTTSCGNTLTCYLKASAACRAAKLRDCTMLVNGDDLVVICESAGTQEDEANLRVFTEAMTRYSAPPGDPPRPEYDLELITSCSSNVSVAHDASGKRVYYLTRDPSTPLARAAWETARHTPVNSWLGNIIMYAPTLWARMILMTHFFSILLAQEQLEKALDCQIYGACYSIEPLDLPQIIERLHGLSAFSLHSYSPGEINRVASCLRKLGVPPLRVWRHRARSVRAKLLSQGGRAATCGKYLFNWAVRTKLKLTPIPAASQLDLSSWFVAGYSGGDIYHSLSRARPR
Text: The stability of a protein system is enhanced after binding to its specific ligand, leading to an increase in the melting temperature (Tm). Taking advantage of this feature, the thermal shift assay was extensively used to assess the binding of small molecules to the protein targets. The metal ion chelators were thought to exert an anti-HCV effect by chelating with Mg^2+ in the catalytic center of NS5B [34, 36, 38]. […] C-terminal His-tagged NS5BΔ21 from HCV 1b subtype was used as the protein in the experiment. Compared with the blank control (DMSO), the fluorescence–temperature curves of the NS5B system in the presence of 21e (Figure 3A) and 21k (Figure 3B) at 50 μM, 100 μM, and 200 μM all shifted to the right of the axis. The Tm values of 21e and 21k increased in a concentration-dependent manner, presenting higher values than that of the blank control (Tm = 63.5 °C) at all tested concentrations.
C-terminal His-tagged NS5BΔ21 from HCV 1b subtype was expressed from pET28a HCR6 plasmid in our lab and dissolved in a Tris-HCl buffer (20 mm, pH 7.2) containing 150 mm NaCl. Then, 1 μL of corresponding concentration (1 mm, 2 mm, or 4 mm) of the test compound in DMSO or 1 μL DMSO alone was added to each well of a 96-well PCR plate (Shanghai Sangon Biotech Co., Ltd., Shanghai, China). Subsequently, 19 μL of pre-prepared PBS solution containing 10 mm MgCl2, 10× SYPRO® orange protein gel stain (Sigma-Aldrich, St. Louis, MO, USA), and 5 μM NS5B protein was added to each well and mixed. The final concentration of DMSO in each well was 5%. The PCR plate was covered with a high-permeable film, incubated at room temperature for 10 min, and then placed on the Applied Biosystems^TM 7500 Real-Time PCR System (Thermo Fisher Scientific, Waltham, MA, USA). The temperature was increased to 90 °C gradually, and the change curve of fluorescence intensity versus system temperature was recorded.

[6] = set-up: method as in PMID 22100256; settings: Figure 1; read-out: NS5B CC50; cited from earlier work
[7] = 5,6-dihydroxypyrimidine-4-carboxylic acids
[8] = Hepatitis C virus, Huh-7.5.1, 50% effective concentration
[9] = Tm of compound group minus Tm of blank control, mean ± SD, three experiments

For `O=C(NCc1ccccc1Cl)Nc1cscc1-c1nc(O)c(O)c(C(=O)O)n1` [compound 5], the EC50 (HCV; cellular level) is given as 9.3 µM and the IC50 (NS5B; [7]) is given as 0.15 µM.

For `O=c1c2ccccc2n(CCc2ccc(F)cc2)c(=O)n1O` [10d, 1-(4-Fluorophenethyl)-3-hydroxyquinazoline-2,4(1H,3H)-dione], the EC50 [1, 8] was 13.3 ± 0.9 µM, the inhibition at 10 µM ([1]; Hepatitis C virus) was 36.4% and the inhibition at 25 µM ([1]; Hepatitis C virus) was 75.7%. The “cytotoxicity (in words)” value [2] was “some cytotoxicity” and the CC50 at 72 h [3] was 22.2 ± 4.6 µM.

With `O=c1[nH]c2cc(-c3cc4ccccc4o3)ccc2c(=O)n1O` [21t, 7-(Benzofuran-2-yl)-3-hydroxyquinazoline-2,4(1H,3H)-dione] the inhibition at 10 µM ([1]; Hepatitis C virus) was 68.3%, the inhibition at 25 µM ([1]; Hepatitis C virus) was 78.5% and the “cytotoxicity (in words)” value [2] was “no obvious cytotoxic effect; also recorded: No cytotoxic effect was observed”. It also gave a CC50 at 72 h [3] greater than 50 µM.

In the case of `O=c1[nH]c2cc(-c3ccc(C(F)(F)F)cc3)ccc2c(=O)n1O` [21h, 3-Hydroxy-7-(4-(trifluoromethyl)phenyl)quinazoline-2,4(1H,3H)-dione], the inhibition at 5 µM [4] is reported as 5%, the EC50 ([1]; 50% effective concentration) is reported as 9.6 ± 2.7 µM and the EC50 [1, 8] is reported as less than 10 µM. For the same compound, the inhibition at 10 µM ([1]; Hepatitis C virus) was 53.8%, the “cytotoxicity (in words)” value [2] was “no cytotoxicity was observed” and the CC50 at 72 h [3] was greater than 50 µM.

In the case of `N#Cc1c(Cl)cc(Cl)cc1COc1cccc(C(=O)CC(=O)C(=O)O)c1` [compound 2], the IC50 (NS5B; α,γ-diketo acids) is listed as 0.045 µM.

In the case of `NC(=O)c1ncn([C@@H]2O[C@H](CO)[C@@H](O)[C@H]2O)n1` [RBV, ribavirin, reference compound], the EC50 (HCV; cellular level, reported) is given as 14 µM, the EC50 [1, 8] is given as 20 ± 4.1 µM and the inhibition at 25 µM ([1]; Hepatitis C virus) is given as 53.2%. It also gave a CC50 at 72 h [3] of 45.5 ± 2.6 µM.

In the case of `O=C(O)c1occc(=O)c1O` [compound 3], the EC50 (HCV; cellular level) is listed as greater than 50 µM and the IC50 (NS5B; meconic acids) is listed as 2.25 µM.

For `C[C@@]1(O)[C@H](O)[C@@H](CO)O[C@H]1n1cnc2c(N)ncnc21` [2CMA, 2′-C-methyladenosine, reference compound], the EC50 (HCV; reported) is given as 0.3 µM, the EC50 [1, 8] is given as 0.36 ± 0.03 µM and the CC50 at 72 h [3] is given as greater than 10 µM.

With `Nc1ncnc2c1ncn2[C@@H]1O[C@H](COP(=O)(O)OP(=O)(O)O)[C@@H](O)[C@H]1O` [ADP, adenosine diphosphate, reference compound] the ΔTm at 50 µM [5, 9] was 0.44 ± 0.11 °C, the ΔTm at 100 µM [5, 9] was 0.62 ± 0.05 °C and the “ΔTm 200 μM” value ([5]; compound 200 μM, Tm of compound group minus Tm of blank control, mean ± SD, three experiments) was 0.88 ± 0.06 °C. For the same compound, the ΔTm at 200 µM ([5]; read-out: ΔTm 200 μM, compound 200 μM, Tm of compound group minus Tm of blank control, mean ± SD, three experiments) was 0.87 °C.

For `O=C(O)C(=O)CC(=O)c1ccccc1` [compound 1], the IC50 (NS5B; α,γ-diketo acids) is given as 5.7 µM.

For `O=C(O)c1nc(-c2cccs2)nc(O)c1O` [compound 4], the EC50 (HCV; cellular level) is given as greater than 100 µM and the IC50 (NS5B; [7]) is given as 2.6 µM.

For `O=C1Cc2cc(-c3ccco3)ccc2C(=O)N1O` [compound 6], the EC50 (HCV; cellular level, reported) is given as 1.9 µM, the IC50 (NS5B; 2-hydroxyisoquinoline-1,3-diones) is given as 1.3 µM and the CC50 [6] is given as 13 µM.

Compound `O=c1[nH]c2cc(-c3cccc([N+](=O)[O-])c3)ccc2c(=O)n1O` [21k, 3-Hydroxy-7-(3-nitrophenyl)quinazoline-2,4(1H,3H)-dione] has a ΔTm at 50 µM [5, 9] of 0.87 ± 0.12 °C, a ΔTm at 100 µM [5, 9] of 1.6 ± 0.08 °C and a ΔTm at 200 µM ([5]; compound 200 μM, Tm of compound group minus Tm of blank control, mean ± SD, three experiments, read-out: ΔTm 200 μM) of 2.1 ± 0.44 °C. The “Tm of NS5B complexed with compound” value ([5]; in Figure 3, blank control Tm = 63.5 °C) was 65.6 °C, the inhibition at 5 µM [4] was 55% and the inhibition at 10 µM ([1]; Hepatitis C virus) was 70.6%. It also gave a CC50 at 72 h [3] of 40.9 ± 3.5 µM.

`O=c1c2ccccc2n(CCc2ccccc2Cl)c(=O)n1O` [10c, 1-(2-Chlorophenethyl)-3-hydroxyquinazoline-2,4(1H,3H)-dione] gave an EC50 [1, 8] greater than 12.2 µM, an inhibition at 10 µM ([1]; Hepatitis C virus) of 33.4% and an inhibition at 25 µM ([1]; Hepatitis C virus) of 67.8%. The “cytotoxicity (in words)” value [2] was “some cytotoxicity” and the CC50 at 72 h [3] was 12.2 µM.

— article PMC9180926, “Discovery of Novel 3-Hydroxyquinazoline-2,4(1H,3H)-Dione Derivatives: A Series of Metal Ion Chelators with Potent Anti-HCV Activities” (International Journal of Molecular Sciences, 2022)
